# Measured values: US20030161893A1, “PTPase inhibitors and methods of using the same” (priority 2001, published 2003)
# What was measured:
# LoVo cells = assay: Cell growth assay (MTT), LoVo colon cancer cells; type: cell-based, human; conditions: 100 μg/ml, day 6
# Method: (§1) NIH3T3 (Yi, et al., Blood 85, 87 (1995)), WM9 (Forsberg, et al., Proc. Nat. Acad Sci. USA 90, 393 (1993)), DU145 (Mickey, et al., Cancer Res. 37, 4049 (1977)), LoVo (Drewinko, et al., Cancer Res. 36, 467 (1976)), HEY (Buick, et al., Cancer Res. 45, 3668 (1985)), U251 (Yoshida, et al., Cancer 50, 410 (1982)), A549 (Giard, et al., J. Natl. Cancer Inst. 51, 1417 (1973)) and SK-N-SH (Helson, et al., Cancer Res. 35, 2594 (1975)) cell lines have been described and were cultured in RPMI 1640 supplemented with 10% fetal calf serum (FCS). For measurement of sodium stibogluconate effects on cell growth in vitro, cells were cultured in the absence (−) or presence (+) of various amounts of sodium stibogluconate for 6 days with viable cells quantified by MTT assays (Mosmann, J. Imunol. Methods 65, 55 (1983)). Percentages of growth inhibition by sodium stibogluconate were calculated (+/−×%).
# SK-N-SH cells = assay: Cell growth assay (MTT), SK-N-SH neuroblastoma cells; type: cell-based, human; conditions: 100 μg/ml, day 6
# Method: as §1
compound,measurement,setting,value
O.O.O.O.O.O.O.O.O.O=C([O-])[C@@H]1[O][Sb]2([O-])([O][Sb]34([OH])[O][C@H]([C@H](O)CO)[C@H]([O]3)[C@H](C(=O)[O-])[O]4)[O][C@H]([C@H](O)CO)[C@@H]1[O]2.[Na+].[Na+].[Na+] [sodium stibogluconate],"cell killing, LoVo",LoVo cells,near-complete cell killing
same,"cell killing, SK-N-SH",SK-N-SH cells,near-complete cell killing
